From US10689705B2, “FGFR3 fusion gene and pharmaceutical drug targeting same” (Chugai Seiyaku Kabushiki Kaisha, priority 2012, dated 2020) come the findings set out here.

This assay relates to colon cancer-derived cell line HCT116. Briefly: cells. The conditions noted are these: Homo sapiens, HCT-116, 96 h, read-out: HCT116 (CRC) IC50.
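Note: proliferation measured with WST-8, IC50 derived by least-squares fitting.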

What is called IC50 is the point on the concentration scale where inhibition reaches its midpoint. On to `Cc1nc2cc(-n3ncc(C(=O)c4cc5cc(SC(F)(F)F)ccc5[nH]4)c3N)ccc2[nH]1` [Compound 61], for which the IC50 stood at 9.1 µM.

On to `Cc1nc2cc(-n3ncc(C(=O)c4cc5ccc(-c6ccc(C(F)(F)F)cn6)cc5[nH]4)c3N)ccc2[nH]1` [Compound 52], for which the IC50 was 10 µM.

As for `Cc1nc2ccc(-n3ncc(C(=O)c4[nH]c5ccccc5c4F)c3N)cc2[nH]1` [Compound 36], the IC50 worked out at 4.8 µM.

Regarding `CCCCc1ccc2cc(C(=O)c3cnn(-c4ccc5nc(C)[nH]c5c4)c3N)[nH]c2c1` [Compound 16], the IC50 turned out to be 17 µM.

Consider `Cc1nc2ccc(-n3ncc(C(=O)c4cc5cc(CN6C(C)CCC6C)ccc5[nH]4)c3N)cc2[nH]1` (stereo not drawn) [Compound 5], for which the IC50 amounted to 11 µM.

For the molecule `C#CCN(C)Cc1ccc2cc(C(=O)c3cnn(-c4ccc5[nH]c(C)nc5c4)c3N)[nH]c2c1` [Compound 19], the IC50 came to 2.5 µM.

In the case of `Cc1nc2cc(-n3ncc(C(=O)c4cc5c(OC(C)C)cccc5[nH]4)c3N)ccc2[nH]1` [Compound 56], the IC50 turned out to be 19 µM.

As for `Cc1nc2cc(-n3ncc(C(=O)c4cc5ccc(Br)cc5[nH]4)c3N)ccc2[nH]1` [Compound 44], the IC50 is 10 µM.

For `Cc1nc2cc(-n3ncc(C(=O)c4cc5ccc(OCC6(C)COC6)cc5[nH]4)c3N)ccc2[nH]1` [Compound 6], the IC50 was 12 µM.

`Cc1nc2cc(-n3ncc(C(=O)c4cc5cc(C(=O)N6CCN(CC(F)(F)F)CC6)ccc5[nH]4)c3N)ccc2[nH]1` [Compound 57]: the IC50 was > 20 µM.

Consider `Cc1nc2ccc(-n3ncc(C(=O)c4cc5ccc(C6CCN(C)CC6)cc5[nH]4)c3N)cc2[nH]1` [Compound 2], for which the concentration for half-maximal inhibition (IC50) is 2.7 µM.

On to `COCCN(CCOC)Cc1ccc2cc(C(=O)c3cnn(-c4ccc5[nH]c(C)nc5c4)c3N)[nH]c2c1` [Compound 8], for which the IC50 stood at 11 µM.

Regarding `Cc1nc2cc(-n3ncc(C(=O)c4cc5ccc(-c6cncc(S(C)(=O)=O)c6)cc5[nH]4)c3N)ccc2[nH]1` [Compound 35], the IC50 was 7.8 µM.

With `Cc1nc2cc(-n3ncc(C(=O)c4cc5ccc(-c6ccc(F)cc6)cc5[nH]4)c3N)ccc2[nH]1` [Compound 64], the IC50 was 1.2 µM.

With `Cc1cc(C)c2cc(C(=O)c3cnn(-c4ccc5[nH]c(C)nc5c4)c3N)[nH]c2c1` [Compound 29], the IC50 came out at 8.5 µM.

Regarding `Cc1nc2cc(-n3ncc(C(=O)c4cc5cc6c(cc5[nH]4)OC(F)(F)O6)c3N)ccc2[nH]1` [Compound 53], the IC50 is > 20 µM.

For the molecule `Cc1nc2cc(-n3ncc(C(=O)c4cc5ccccc5[nH]4)c3N)c(F)cc2[nH]1` [Compound 15], the IC50 is 19 µM.

`Cc1nc2cc(-n3ncc(C(=O)c4cc5cc(-n6ccnc6)ccc5[nH]4)c3N)ccc2[nH]1` [Compound 65]: the IC50 amounted to 23 µM.

Turning to `Cc1nc2cc(-n3ncc(C(=O)c4cc5cc(F)c(C(F)(F)F)cc5[nH]4)c3N)ccc2[nH]1` [Compound 62], the IC50 was determined as 1.7 µM.

Take `Cc1nc2cc(-n3ncc(C(=O)c4cc5cc(OCC6CC6)ccc5[nH]4)c3N)ccc2[nH]1` [Compound 39]: the IC50 worked out at 11 µM.

For `Cc1nc2cc(-n3ncc(C(=O)c4cc5cc(C(=O)N6CCCC(F)(F)C6)ccc5[nH]4)c3N)ccc2[nH]1` [Compound 60], the IC50 was 17 µM.

For `Cc1nc2ccc(-n3ncc(C(=O)c4cc5ccc(C#N)cc5[nH]4)c3N)cc2[nH]1` [Compound 10], the half-inhibitory concentration (IC50) was > 50 µM.

With `Cc1nc2cc(-n3ncc(C(=O)c4cc5ccc(OCCN6CCN(C)CC6)cc5[nH]4)c3N)ccc2[nH]1` [Compound 9], the IC50 is 6.3 µM.

Turning to `Cc1nc2cc(-n3ncc(C(=O)c4cc5ccc(OC6COC6)cc5[nH]4)c3N)ccc2[nH]1` [Compound 21], the IC50 came to 21 µM.

With `COc1cc(OC)c2cc(C(=O)c3cnn(-c4ccc5[nH]c(C)nc5c4)c3N)[nH]c2c1` [Compound 37], the IC50 turned out to be 8.9 µM.

`Cc1nc2cc(-n3ncc(C(=O)c4cc5cc(C(F)(F)F)ccc5[nH]4)c3N)ccc2[nH]1` [Compound 68]: the IC50 is > 2 µM.

`COc1cc2[nH]c(C(=O)c3cnn(-c4ccc5[nH]c(C)nc5c4)c3N)cc2cc1Cl` [Compound 58]: the IC50 worked out at 12 µM.

In the case of `Cc1nc2ccc(-n3ncc(C(=O)c4cc5cc(-c6cccnc6)ccc5[nH]4)c3N)cc2[nH]1` [Compound 28], the IC50 was 21 µM.

On to `Cc1nc2cc(-n3ncc(C(=O)c4cc5ccc(-c6ccc(N7CCOCC7)nc6)cc5[nH]4)c3N)ccc2[nH]1` [Compound 20], for which the IC50 was > 50 µM.

Turning to `C#Cc1cccc2[nH]c(C(=O)c3cnn(-c4ccc5[nH]c(C)nc5c4)c3N)cc12` [Compound 63], the IC50 came out at 13 µM.

Consider `COc1ccc2cc(C(=O)c3cnn(-c4ccc5[nH]c(C)nc5c4)c3N)[nH]c2c1` [Compound 18], for which the IC50 stood at 11 µM.

Take `Cc1nc2cc(-n3ncc(C(=O)c4cc5cc(Oc6ccccc6)ccc5[nH]4)c3N)ccc2[nH]1` [Compound 69]: the IC50 came to 4.3 µM.

Regarding `Cc1nc2ccc(-n3ncc(C(=O)c4cc5ccc(-c6cccs6)cc5[nH]4)c3N)cc2[nH]1` [Compound 13], the IC50 worked out at 0.39 µM.

Consider `Cc1ccc(-c2ccc3cc(C(=O)c4cnn(-c5ccc6[nH]c(C)nc6c5)c4N)[nH]c3c2)cn1` [Compound 41], for which the IC50 was > 20 µM.

For the molecule `CN1CCC(c2ccc3[nH]c(C(=O)c4cnn(-c5ccc6nc(C(F)F)[nH]c6c5)c4N)cc3c2)CC1` [Compound 23], the 50% inhibitory concentration (IC50) was 10 µM.

On to `Cc1nc2ccc(-n3ncc(C(=O)c4cc5ccc(Cl)cc5[nH]4)c3N)cc2[nH]1` [Compound 50], for which the IC50 worked out at 34 µM.

Regarding `Cc1nc2cc(-n3ncc(C(=O)c4cc5ccc(O)cc5[nH]4)c3N)ccc2[nH]1` [Compound 48], the IC50 amounted to 37 µM.

As for `Cc1nc2cc(-n3ncc(C(=O)c4cc5ccc(I)cc5[nH]4)c3N)ccc2[nH]1` [Compound 22], the IC50 worked out at 1.2 µM.

As for `Cc1nc2cc(-n3ncc(C(=O)c4cc5ccc(NS(C)(=O)=O)cc5[nH]4)c3N)ccc2[nH]1` [Compound 66], the IC50 is > 50 µM.

Regarding `Cc1nc2cc(-n3ncc(C(=O)c4cc5cc(C(C)(C)C)ccc5[nH]4)c3N)ccc2[nH]1` [Compound 33], the IC50 worked out at 4.4 µM.

In the case of `Cc1nc2cc(-n3ncc(C(=O)c4cc5ccc(-c6cnn(C)c6)cc5[nH]4)c3N)ccc2[nH]1` [Compound 24], the IC50 was > 50 µM.

On to `Cc1nc2cc(-n3ncc(C(=O)c4cc5cc(Cc6ccccc6)ccc5[nH]4)c3N)ccc2[nH]1` [Compound 71], for which the concentration for half-maximal inhibition (IC50) is 3.8 µM.

Consider `CSc1ccc2cc(C(=O)c3cnn(-c4ccc5[nH]c(C)nc5c4)c3N)[nH]c2c1` [Compound 30], for which the IC50 was determined as 13 µM.

With `Cc1nc2cc(-n3ncc(C(=O)c4cc5c(C)cccc5[nH]4)c3N)ccc2[nH]1` [Compound 42], the IC50 is 15 µM.

For `Cc1nc2cc(-n3ncc(C(=O)c4cc5ccc(C6CC6)cc5[nH]4)c3N)ccc2[nH]1` [Compound 12], the IC50 turned out to be 7.2 µM.

`Cc1nc2cc(-n3ncc(C(=O)c4cc5cc(CN6CCN(S(C)(=O)=O)CC6)ccc5[nH]4)c3N)ccc2[nH]1` [Compound 47]: the IC50 was found to be 14 µM.

With `Cc1nc2cc(-n3ncc(C(=O)c4cc5cc(C6CCN(C(C)C)CC6)c(C(F)(F)F)cc5[nH]4)c3N)ccc2[nH]1` [Compound 31], the IC50 was 2 µM.

For the molecule `Cc1nc2ccc(-n3ncc(C(=O)c4cc5cc(CN6CCCC(F)C6)ccc5[nH]4)c3N)cc2[nH]1` (stereo not drawn) [Compound 4], the IC50 is 9.5 µM.

Turning to `COCCOc1ccc2[nH]c(C(=O)c3cnn(-c4ccc5[nH]c(C)nc5c4)c3N)cc2c1` [Compound 25], the IC50 was > 100 µM.

Regarding `Cc1nc2cc(-n3ncc(C(=O)c4cc5ccc(OCCN6CCOCC6)cc5[nH]4)c3N)ccc2[nH]1` [Compound 45], the IC50 is 9.4 µM.

Turning to `Cc1nc2cc(-n3ncc(C(=O)c4cc5cc(F)c(Br)cc5[nH]4)c3N)ccc2[nH]1` [Compound 70], the IC50 amounted to 9 µM.

In the case of `COc1ccccc1-c1ccc2cc(C(=O)c3cnn(-c4ccc5[nH]c(C)nc5c4)c3N)[nH]c2c1` [Compound 51], the IC50 was 5.1 µM.

For the molecule `CCCCOc1ccc2[nH]c(C(=O)c3cnn(-c4ccc5[nH]c(C)nc5c4)c3N)cc2c1` [Compound 38], the IC50 stood at 6.1 µM.

For the molecule `Cc1nc2ccc(-n3ncc(C(=O)c4cc5cc(C6=CCNCC6)ccc5[nH]4)c3N)cc2[nH]1` [Compound 32], the IC50 came to 8.7 µM.

As for `Cc1nc2ccc(-n3ncc(C(=O)c4cc5ccc(CO)cc5[nH]4)c3N)cc2[nH]1` [Compound 27], the IC50 came to 25 µM.

On to `Cc1nc2ccc(-n3ncc(C(=O)c4cc5cc(C6CCN(C(C)C)CC6)ccc5[nH]4)c3N)cc2[nH]1` [Compound 11], for which the IC50 is 5.7 µM.

As to `Cc1nc2ccc(-n3ncc(C(=O)c4cc5cc(C6CCN(C7CCCC7)CC6)ccc5[nH]4)c3N)cc2[nH]1` [Compound 17], the IC50 is 3.8 µM.

Regarding `Cc1nc2cc(-n3ncc(C(=O)c4cc5cc6c(cc5[nH]4)OCCO6)c3N)ccc2[nH]1` [Compound 14], the concentration for half-maximal inhibition (IC50) came to 3.1 µM.

`Cc1nc2cc(-n3ncc(C(=O)c4cc5ncccc5[nH]4)c3N)ccc2[nH]1` [Compound 40]: the IC50 was 19 µM.

As for `Cc1nc2cc(-n3ncc(C(=O)c4cc5cc(C(=O)N6CCC(N7CCCCC7)CC6)ccc5[nH]4)c3N)ccc2[nH]1` [Compound 54], the IC50 was > 20 µM.

For the molecule `Cc1nc2cc(-n3ncc(C(=O)c4cc5ccc(OC6CCOCC6)cc5[nH]4)c3N)ccc2[nH]1` [Compound 67], the IC50 was 7.3 µM.

Consider `Cc1nc2cc(-n3ncc(C(=O)c4cc5ccc(OCc6ccccc6)cc5[nH]4)c3N)ccc2[nH]1` [Compound 59], for which the IC50 was 3.3 µM.

As for `Cc1nc2ccc(-n3ncc(C(=O)c4cc5cc(C6CCNCC6)c(F)cc5[nH]4)c3N)cc2[nH]1` [Compound 55], the IC50 turned out to be 16 µM.

`Cc1nc2cc(-n3ncc(C(=O)c4cc5ccc(CN6CCOC[C@@H]6C)cc5[nH]4)c3N)ccc2[nH]1` [Compound 3]: the IC50 is 2.9 µM.

Consider `Cc1nc2cc(-n3ncc(C(=O)c4cc5ccc(-c6ccc(F)cn6)cc5[nH]4)c3N)ccc2[nH]1` [Compound 26], for which the IC50 worked out at 11 µM.

With `COc1ncccc1-c1ccc2cc(C(=O)c3cnn(-c4ccc5[nH]c(C)nc5c4)c3N)[nH]c2c1` [Compound 43], the IC50 is > 50 µM.
